Publication PMC4948722 (Cancer research, 2011)

Columns and labels:
Experiment in all cases: kinase panel, […] compound, […] ATP
Assay type in all cases: biochemical
Conditions in all cases: read-out: % inhibition at 1 μM
GCK = molecular target: T1, GCK (Homo sapiens, UniProt Q12851)
T1 sequence (Q12851 1-820): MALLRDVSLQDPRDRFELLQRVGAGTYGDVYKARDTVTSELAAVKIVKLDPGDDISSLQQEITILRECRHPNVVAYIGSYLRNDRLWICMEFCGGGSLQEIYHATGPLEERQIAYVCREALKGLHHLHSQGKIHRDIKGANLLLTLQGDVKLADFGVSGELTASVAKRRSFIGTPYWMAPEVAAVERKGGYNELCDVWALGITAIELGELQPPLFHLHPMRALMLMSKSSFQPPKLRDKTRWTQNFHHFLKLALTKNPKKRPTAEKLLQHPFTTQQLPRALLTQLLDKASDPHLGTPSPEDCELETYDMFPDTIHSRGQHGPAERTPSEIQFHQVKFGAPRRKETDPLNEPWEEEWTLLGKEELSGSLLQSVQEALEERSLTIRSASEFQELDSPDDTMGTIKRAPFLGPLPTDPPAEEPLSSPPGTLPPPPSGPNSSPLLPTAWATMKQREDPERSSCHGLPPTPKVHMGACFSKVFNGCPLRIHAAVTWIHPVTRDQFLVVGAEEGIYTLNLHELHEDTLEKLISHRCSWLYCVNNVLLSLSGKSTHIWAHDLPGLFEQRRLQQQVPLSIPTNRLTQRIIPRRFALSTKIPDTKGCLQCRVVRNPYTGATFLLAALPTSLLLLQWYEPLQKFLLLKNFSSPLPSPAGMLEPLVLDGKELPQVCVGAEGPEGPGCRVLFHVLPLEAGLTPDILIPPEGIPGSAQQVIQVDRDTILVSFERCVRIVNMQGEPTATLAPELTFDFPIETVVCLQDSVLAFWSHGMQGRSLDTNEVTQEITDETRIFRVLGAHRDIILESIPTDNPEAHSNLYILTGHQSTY

MLK1 = MLK1 (Homo sapiens, UniProt P80192)
Sequence of MLK1 (P80192 whole entry): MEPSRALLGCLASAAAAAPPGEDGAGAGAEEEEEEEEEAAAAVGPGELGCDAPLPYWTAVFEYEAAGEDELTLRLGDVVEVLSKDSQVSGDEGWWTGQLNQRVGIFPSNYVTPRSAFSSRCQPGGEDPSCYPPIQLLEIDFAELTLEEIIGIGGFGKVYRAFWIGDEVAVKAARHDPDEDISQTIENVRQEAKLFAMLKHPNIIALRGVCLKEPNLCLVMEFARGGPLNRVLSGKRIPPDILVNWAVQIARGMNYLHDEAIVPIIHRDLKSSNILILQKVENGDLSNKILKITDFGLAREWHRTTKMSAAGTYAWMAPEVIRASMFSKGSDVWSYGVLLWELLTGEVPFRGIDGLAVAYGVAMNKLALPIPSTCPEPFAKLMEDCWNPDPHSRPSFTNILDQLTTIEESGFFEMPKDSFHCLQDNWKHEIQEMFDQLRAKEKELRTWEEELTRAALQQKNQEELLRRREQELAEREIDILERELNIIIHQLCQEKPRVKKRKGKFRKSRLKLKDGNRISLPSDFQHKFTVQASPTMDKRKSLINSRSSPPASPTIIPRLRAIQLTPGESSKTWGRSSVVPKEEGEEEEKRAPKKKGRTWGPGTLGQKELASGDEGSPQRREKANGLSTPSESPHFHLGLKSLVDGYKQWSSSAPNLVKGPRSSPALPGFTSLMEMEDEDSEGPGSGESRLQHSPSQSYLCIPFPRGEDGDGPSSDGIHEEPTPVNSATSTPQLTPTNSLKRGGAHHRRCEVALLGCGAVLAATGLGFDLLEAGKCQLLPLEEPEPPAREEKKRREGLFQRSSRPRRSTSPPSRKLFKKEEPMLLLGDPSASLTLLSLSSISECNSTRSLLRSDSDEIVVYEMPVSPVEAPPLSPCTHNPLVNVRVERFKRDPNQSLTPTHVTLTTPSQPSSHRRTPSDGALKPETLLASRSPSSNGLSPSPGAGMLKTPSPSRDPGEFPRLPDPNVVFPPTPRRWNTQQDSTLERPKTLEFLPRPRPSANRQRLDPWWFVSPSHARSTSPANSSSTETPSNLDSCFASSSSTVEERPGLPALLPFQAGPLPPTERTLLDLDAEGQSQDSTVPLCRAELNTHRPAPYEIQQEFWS

MARK3 = MARK3 (Homo sapiens, UniProt P27448)
Sequence of MARK3 (P27448 whole entry): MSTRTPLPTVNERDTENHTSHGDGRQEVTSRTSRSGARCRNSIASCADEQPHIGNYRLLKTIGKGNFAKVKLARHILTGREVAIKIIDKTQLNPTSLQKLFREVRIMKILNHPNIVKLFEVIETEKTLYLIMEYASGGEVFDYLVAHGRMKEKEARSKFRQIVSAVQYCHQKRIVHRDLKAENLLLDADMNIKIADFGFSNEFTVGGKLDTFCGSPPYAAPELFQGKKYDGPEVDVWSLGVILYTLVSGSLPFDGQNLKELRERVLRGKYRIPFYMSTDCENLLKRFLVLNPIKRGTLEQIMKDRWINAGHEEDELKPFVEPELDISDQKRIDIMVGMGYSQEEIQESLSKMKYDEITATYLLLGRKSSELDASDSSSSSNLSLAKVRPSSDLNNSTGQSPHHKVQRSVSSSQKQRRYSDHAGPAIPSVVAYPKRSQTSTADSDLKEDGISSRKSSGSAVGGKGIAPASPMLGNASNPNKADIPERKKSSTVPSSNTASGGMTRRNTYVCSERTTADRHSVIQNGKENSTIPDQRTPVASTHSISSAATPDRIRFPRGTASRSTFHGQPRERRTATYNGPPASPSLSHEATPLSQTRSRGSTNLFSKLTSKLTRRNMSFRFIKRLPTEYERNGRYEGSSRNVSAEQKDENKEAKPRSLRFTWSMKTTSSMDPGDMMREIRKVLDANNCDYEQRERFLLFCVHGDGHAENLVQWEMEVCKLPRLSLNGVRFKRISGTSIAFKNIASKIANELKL

Measured: inhibition at 1 µM

COc1cc2nc(-c3cc(F)ccc3O)nc(N[C@@H]3CNC[C@H]3C(C)(C)O)c2cc1OC [CCT241533]
> 80%: GCK | MLK1 | MARK3
